Experimental data taken from patent publication US4322528A (priority 1979, dated 1982).
Read-outs that look alike come from different tables or passages of the source.

How the values were obtained:
Test in all cases: whole plant or invertebrate
Housefly Larvae = conditions: Musca domestica, soil, 168 h
[1] = tested on: Parathion-resistant Two-spotted Spider Mite Egg; conditions: Tetranychus urticae, foliar, read-out: Parathion-resistant Two-spotted Spider Mite, Egg, % control @ ppm
Tobacco Budworm Larvae = conditions: Heliothis virescens, foliar, read-out: Tobacco Budworm Larvae, Leaf Feed, % control @ ppm
Housefly Adult = conditions: Musca domestica, read-out: Housefly Adult, Contact Spray, % control @ ppm
Cabbage Looper Larvae = conditions: Trichoplusia ni, foliar, read-out: Cabbage Looper Larvae, Leaf Feed, % control @ ppm
[2] = tested on: Hock Colorado Potato Beetle 2nd Stg. Larva; conditions: Leptinotarsa decemlineata, foliar, read-out: Hock Colorado Potato Beetle 2nd Stg. Larva, Leaf Feed, % control @ ppm
[3] = read-out: 7-Day Exposure Housefly Larvae Treatment, % control, C @ ppm (second sub-column)
[4] = read-out: 7-Day Exposure Housefly Larvae Treatment, % control @ ppm

| SMILES | mortality at 40 ppm (Housefly Larvae; [3]) [%] | mortality at 40 ppm [1] [%] | mortality at 500 ppm (Tobacco Budworm Larvae) [%] | mortality at 40 ppm (Housefly Larvae; [4]) [%] | mortality at 100 ppm (Housefly Adult) [%] | mortality at 500 ppm (Cabbage Looper Larvae) [%] | mortality at 500 ppm [2] [%] |
| --- | --- | --- | --- | --- | --- | --- | --- |
| CCOP(=S)(OCC)Oc1cc(C)nc(C(C)C)n1 [Diazinon, reference compound] | 37 |  |  |  |  |  |  |
| ClC1=C(Cl)C2(Cl)C3c4ccccc4CC3N1C2(Cl)Cl (centres unmarked) [Ex. 5, 1-aza-4,5-benzo-7,8,9,10,10-pentachlorotricyclo[5.2.1.0^2.6]-8-decene] |  | 13 | 6 | 47 | 42 |  |  |
| ClC1=NC(Cl)(Cl)C2(Cl)C3CC(C(Cl)C3Cl)C12Cl (centres unmarked) [Ex. 3, 4-aza-2,3,5,5,6,8,9-heptachlorotricyclo[5.2.1.0^2.6]dec-3-ene] | 67 | 31 |  |  | 83 | 26 |  |
| ClC1=C(Cl)C2(Cl)C(c3ccccc3)CN1C2(Cl)Cl (centres unmarked) [Ex. 4, 1-aza-5-phenyl-2,3,4,7,7-pentachlorobicyclo[2.2.1]-2-heptene] |  | 77 | 66 | 43 | 10 |  | 50 |
